Assay results taken from ChEMBL document CHEMBL1201862, “PubChem BioAssay data set” (2004).
Activity calls are given as the source filed them.

What was measured:
[1] = target: T1, RNA-binding protein pos-1 (Caenorhabditis elegans, UniProt G5EF15); assay: inhibitors of POS-1/mex-3 RNA binding, dose response, biochemical, fluorescence polarization (AID 1964);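 also: purified POS-1 fused to maltose binding protein made in E. coli; potency of compounds blocking POS-1 binding to fluorescent RNA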
T1 sequence (G5EF15 whole entry): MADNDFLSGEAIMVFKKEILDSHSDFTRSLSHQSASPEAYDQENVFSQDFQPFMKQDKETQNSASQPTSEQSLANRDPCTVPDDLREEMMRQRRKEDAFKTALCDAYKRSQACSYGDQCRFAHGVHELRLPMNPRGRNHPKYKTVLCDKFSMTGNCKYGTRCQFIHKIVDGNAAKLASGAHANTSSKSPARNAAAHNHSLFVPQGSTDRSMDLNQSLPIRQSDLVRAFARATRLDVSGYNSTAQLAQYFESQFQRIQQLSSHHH

[2] = target: T2, Zinc finger protein mex-5 (Caenorhabditis elegans, UniProt Q9XUB2); assay: MEX-5/TCR-2 RNA interaction inhibitors, dose response, biochemical, C. elegans, fluorescence polarization (AID 1960)
T2 sequence (Q9XUB2 whole entry): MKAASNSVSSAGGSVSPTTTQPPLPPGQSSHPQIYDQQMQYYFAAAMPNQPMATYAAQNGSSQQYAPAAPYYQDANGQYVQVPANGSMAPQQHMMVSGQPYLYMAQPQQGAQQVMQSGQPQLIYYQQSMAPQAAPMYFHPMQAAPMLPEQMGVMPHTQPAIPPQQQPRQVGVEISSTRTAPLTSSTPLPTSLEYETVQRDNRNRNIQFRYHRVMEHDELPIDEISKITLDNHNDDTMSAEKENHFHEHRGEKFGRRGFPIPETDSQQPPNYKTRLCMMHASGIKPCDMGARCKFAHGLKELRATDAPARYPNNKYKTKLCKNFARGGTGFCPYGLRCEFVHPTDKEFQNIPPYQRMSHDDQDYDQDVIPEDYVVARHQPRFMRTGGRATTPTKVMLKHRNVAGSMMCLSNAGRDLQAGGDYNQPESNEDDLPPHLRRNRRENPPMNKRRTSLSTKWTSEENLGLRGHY

[3] = target: T3, Heat shock factor protein 1 (Mus musculus, UniProt P38532); assay: inhibition of MG132-induced HSE-luciferase signal, confirmation, cell-based, NIH3T3, luminescence, dose retest (AID 2382); type: functional;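 also: NIH3T3 fibroblasts with HSF1-driven luciferase reporter stressed by proteasome inhibitor MG132; luminescence from HSF1-driven luciferase expression after 8 hours of MG132 stress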
T3 sequence (P38532 whole entry): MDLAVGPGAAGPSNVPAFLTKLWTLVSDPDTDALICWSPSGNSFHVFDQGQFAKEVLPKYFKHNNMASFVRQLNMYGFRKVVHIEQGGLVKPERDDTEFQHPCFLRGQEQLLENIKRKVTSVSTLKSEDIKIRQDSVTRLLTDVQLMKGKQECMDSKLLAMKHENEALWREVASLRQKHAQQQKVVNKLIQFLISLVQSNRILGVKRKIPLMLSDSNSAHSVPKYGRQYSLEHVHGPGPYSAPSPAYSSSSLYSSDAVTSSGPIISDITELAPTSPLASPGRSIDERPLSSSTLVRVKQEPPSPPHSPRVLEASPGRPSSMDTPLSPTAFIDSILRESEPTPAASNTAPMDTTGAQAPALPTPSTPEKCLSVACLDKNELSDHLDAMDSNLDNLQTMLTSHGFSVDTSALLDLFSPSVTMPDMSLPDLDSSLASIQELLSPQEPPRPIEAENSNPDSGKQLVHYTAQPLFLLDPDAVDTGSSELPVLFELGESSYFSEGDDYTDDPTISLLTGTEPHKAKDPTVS

Protein skinhead-1 = target: T4, Protein skinhead-1 (Caenorhabditis elegans, UniProt P34707); type: functional
T4 sequence (P34707 whole entry): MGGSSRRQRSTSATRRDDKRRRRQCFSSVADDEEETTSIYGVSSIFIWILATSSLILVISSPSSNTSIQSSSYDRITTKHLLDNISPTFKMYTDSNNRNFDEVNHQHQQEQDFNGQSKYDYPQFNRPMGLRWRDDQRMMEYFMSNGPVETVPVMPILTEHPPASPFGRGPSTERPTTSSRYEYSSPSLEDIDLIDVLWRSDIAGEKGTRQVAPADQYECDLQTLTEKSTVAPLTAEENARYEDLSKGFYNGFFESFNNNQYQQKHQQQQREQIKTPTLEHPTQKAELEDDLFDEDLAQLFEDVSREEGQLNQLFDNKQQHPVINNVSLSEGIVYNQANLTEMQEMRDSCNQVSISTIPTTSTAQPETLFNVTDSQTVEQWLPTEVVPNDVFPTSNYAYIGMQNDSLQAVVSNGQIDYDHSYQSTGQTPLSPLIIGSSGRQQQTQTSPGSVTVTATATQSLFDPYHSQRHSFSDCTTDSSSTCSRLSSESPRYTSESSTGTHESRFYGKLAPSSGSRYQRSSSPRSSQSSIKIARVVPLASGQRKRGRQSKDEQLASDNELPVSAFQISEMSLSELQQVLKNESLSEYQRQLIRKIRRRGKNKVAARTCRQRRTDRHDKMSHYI

H9c2 = assay: cells; type: functional, cell-based; details: Rattus norvegicus, H9c2, Myocardium
[4] = HEp-2 cell cytotoxicity, dose response, cytotoxicity control for RSV inhibitor project, HTS (AID 2410); type: functional; details: human respiratory syncytial virus
Paired box protein Pax-8 = Paired box protein Pax-8 (Homo sapiens, UniProt Q06710); assay: inhibitors of PAX8-driven TPO luciferase reporter, dose response, RMG-I cells, cherry-pick (AID 687027); type: functional, cell-based;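 also: luciferase reporter driven by Pax8 target thyroperoxidase promoter measured by SteadyGlo luminescence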
Cytochrome P450 2C19 = Cytochrome P450 2C19 (Homo sapiens, UniProt P33261); assay: Cytochrome panel assay with activity outcomes. Panel member name: p450-cyp2c19 Compounds with AC50 equal or less than 10 uM are considered active; type: functional; details: read-out: AC50
Cytochrome P450 2C9 = Cytochrome P450 2C9 (Homo sapiens, UniProt P11712)
[5] = target: T3, Heat shock factor protein 1; assay: HSF1 potentiators in luciferase reporter cells, confirmation, cell-based, NIH3T3, luminescence, dose retest (AID 435004); type: functional;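 also: stress induced by proteasome inhibitor MG132 added 30 min after compound; luciferase reporter driven by HSF1 response element in NIH3T3 cells; actives raise luminescence as potentiators of the MG132 stress response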

Paired box protein Pax-8, sequence (Q06710 whole entry): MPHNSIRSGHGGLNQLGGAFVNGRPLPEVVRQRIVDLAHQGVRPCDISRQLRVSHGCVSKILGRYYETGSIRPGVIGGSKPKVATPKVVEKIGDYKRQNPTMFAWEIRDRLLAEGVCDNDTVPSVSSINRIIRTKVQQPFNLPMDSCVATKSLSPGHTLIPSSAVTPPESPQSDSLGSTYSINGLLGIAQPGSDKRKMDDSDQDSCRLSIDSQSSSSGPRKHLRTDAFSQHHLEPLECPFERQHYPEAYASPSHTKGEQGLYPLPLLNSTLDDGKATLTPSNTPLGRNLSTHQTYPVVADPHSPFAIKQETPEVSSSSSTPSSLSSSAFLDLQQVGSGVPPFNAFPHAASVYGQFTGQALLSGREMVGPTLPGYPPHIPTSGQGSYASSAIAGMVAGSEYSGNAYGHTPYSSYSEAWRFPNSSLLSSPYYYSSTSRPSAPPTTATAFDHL
Cytochrome P450 2C9, sequence (P11712 whole entry): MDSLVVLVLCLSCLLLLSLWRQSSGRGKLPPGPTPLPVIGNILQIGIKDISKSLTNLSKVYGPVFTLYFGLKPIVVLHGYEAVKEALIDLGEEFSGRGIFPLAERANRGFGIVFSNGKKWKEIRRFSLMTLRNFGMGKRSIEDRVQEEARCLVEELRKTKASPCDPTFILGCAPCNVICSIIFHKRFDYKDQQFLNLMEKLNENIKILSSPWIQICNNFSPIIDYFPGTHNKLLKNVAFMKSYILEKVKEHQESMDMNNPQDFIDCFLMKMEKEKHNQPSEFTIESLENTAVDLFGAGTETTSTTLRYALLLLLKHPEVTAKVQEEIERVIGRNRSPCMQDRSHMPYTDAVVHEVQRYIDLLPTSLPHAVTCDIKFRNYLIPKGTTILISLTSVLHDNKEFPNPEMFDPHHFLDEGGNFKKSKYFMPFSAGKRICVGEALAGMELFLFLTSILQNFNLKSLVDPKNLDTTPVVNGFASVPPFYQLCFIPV
Cytochrome P450 2C19, sequence (P33261 whole entry): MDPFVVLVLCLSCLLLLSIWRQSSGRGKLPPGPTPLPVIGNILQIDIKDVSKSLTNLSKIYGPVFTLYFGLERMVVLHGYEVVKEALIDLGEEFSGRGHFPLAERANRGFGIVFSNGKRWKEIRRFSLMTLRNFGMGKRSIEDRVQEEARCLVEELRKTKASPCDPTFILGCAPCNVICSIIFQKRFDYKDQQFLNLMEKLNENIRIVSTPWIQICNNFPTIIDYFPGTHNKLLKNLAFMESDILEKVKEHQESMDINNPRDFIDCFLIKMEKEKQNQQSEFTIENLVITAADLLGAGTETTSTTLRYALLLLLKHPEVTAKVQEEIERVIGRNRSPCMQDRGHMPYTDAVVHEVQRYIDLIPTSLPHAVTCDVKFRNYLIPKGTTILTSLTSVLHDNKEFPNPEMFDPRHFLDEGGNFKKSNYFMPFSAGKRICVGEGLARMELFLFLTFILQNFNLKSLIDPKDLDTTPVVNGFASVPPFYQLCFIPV

## CCOc1c(C=C(C#N)C#N)c2ccccc2n1CC
[1]
  EC50: > 300 µM (not active)
[2]
  EC50: > 300 µM (not active)

## COc1cc(NC(=O)c2cc(C)nc3ccccc23)cc(OC)c1
[3]
  EC50: > 195 µM (not active)

## O=C1CCCN1CCC1CCN(C(=O)Nc2ccccc2)CC1
[3]
  EC50: > 195 µM (not active)

## O=C(Nc1ccc(Cl)cc1)C(c1ccccc1)N(CCO)CCO (stereo not drawn)
Protein skinhead-1
  IC50: > 100 µM (inactive)

## COc1ccc(-c2cc(C(=O)NNC(=O)c3csc(N4CCOCC4)n3)c3ccccc3n2)cc1
H9c2
  IC50: > 79 µM (inactive)

## O=C(Nc1cc[n+](-c2nc3ccccc3nc2[N-]S(=O)(=O)c2ccccc2)cc1)c1ccccc1Cl
[1]
  EC50: > 300 µM (not active)
[2]
  EC50: 32.7 µM (active)

## CCCCN(C)C(=O)c1cccc(OC2CCN(CC(C)(C)C)CC2)c1
[1]
  EC50: > 300 µM (not active)
[2]
  EC50: > 300 µM (inconclusive)

## Cc1ccc(S(=O)(=O)NCCC(=O)N2CCN(S(=O)(=O)c3ccccc3)CC2)cc1C
[3]
  EC50: > 195 µM (not active)

## Brc1ccc(-c2nc(-c3cccnc3)no2)o1
Protein skinhead-1
  IC50: 42.7 µM (active)

## O=C(Nc1ccccc1)NC1(C(=O)NCc2ccc3c(c2)OCO3)CCCCC1
[1]
  EC50: > 300 µM (not active)
[2]
  EC50: > 300 µM (not active)

## COc1ccc(CNC(=O)c2cnc3cc(C)ccn3c2=O)cc1
[1]
  EC50: > 300 µM (not active)
[2]
  EC50: > 300 µM (not active)

## O=C(Nc1ccc(Nc2ccccc2)cc1)c1ccc(Cl)c([N+](=O)[O-])c1
[4]
  CC50: 18.7 µM (active)

## COc1cc(/C=N/NC(=O)c2cccnc2)ccc1OS(=O)(=O)c1cc(C)ccc1C
H9c2
  IC50: > 79 µM (inactive)

## COC(=O)c1c(C)[nH]c(C)c1-c1cccc([N+](=O)[O-])c1
[3]
  EC50: > 195 µM (not active)

## COCCNC(=O)c1ccc(-c2ccc(OC)cc2C)c2ccoc12
Protein skinhead-1
  IC50: > 100 µM (inactive)

## CCN(CC)S(=O)(=O)c1cc(C(=O)Nc2cc(C)on2)ccc1Cl
[3]
  EC50: > 195 µM (not active)

## COc1cccc(/C=N/NC(=O)c2ccc(N3CCCC3=O)cc2)c1
Paired box protein Pax-8
  AC50: < 0.26 µM (active)

## Cc1cc2c(cc1S(=O)(=O)N1CCc3ccccc31)NC(=O)CO2
[4]
  CC50: 13.8 µM (active)

## Cc1ccc(S(=O)(=O)Nc2ccc3c(c2)C(=O)N([C@@H](C)CO)C[C@H](C)[C@@H](CN(C)C(=O)Nc2ccc(C(F)(F)F)cc2)OCCCC[C@H](C)O3)cc1
Paired box protein Pax-8
  AC50: 3.14 µM (active)

## COc1ccc(N2C(=O)/C(=C/c3ccc(N(C)C)o3)C(=O)NC2=S)cc1
[1]
  EC50: > 300 µM (not active)
[2]
  EC50: > 150 µM (inconclusive)

## O=[N+]([O-])c1ccc(N2CCc3ccccc3C2)nc1
[4]
  CC50: 19.6 µM (active)

## C[C@@H]1CCCCO[C@H](CN(C)C(=O)Nc2ccc(C(F)(F)F)cc2)[C@@H](C)CN([C@@H](C)CO)C(=O)c2cc(NS(=O)(=O)c3cccs3)ccc2O1
Paired box protein Pax-8
  AC50: 6.63 µM (active)

## COc1ccccc1-c1ccc2c(c1)[C@H]1[C@H](CCN1S(=O)(=O)c1ccccc1F)[C@H](CO)N2
Paired box protein Pax-8
  AC50: 8.48 µM (active)

## O=C[C@H](O)[C@@H](O)[C@H](O)CO [XYLOSE]
[3]
  EC50: > 195 µM (not active)

## COC(=O)c1cc(NC(=O)c2cc(-c3ccc(OC)cc3)oc2C(F)(F)F)ccc1N1CCOCC1
[4]
  CC50: 13.4 µM (active)

## O=C(CN1CCN(c2ccc(F)cc2)CC1)Nc1cccc(C(F)(F)F)c1
[4]
  CC50: 29.2 µM (active)

## COCCCNC(=O)c1cn(CC(C)C)c(=O)c2c1c1ccccc1n2C
[3]
  EC50: > 195 µM (not active)
Protein skinhead-1
  IC50: > 100 µM (inactive)

## O=C(Nc1cc(=O)[nH]c2ncnn12)c1ccc(Cl)cc1Cl
[1]
  EC50: 43.5 µM (inconclusive)
[2]
  EC50: 20.5 µM (inconclusive)

## O=C(COC(=O)Cc1nnc(O)c2ccccc12)NNC(=O)c1ccc(Cl)cc1
H9c2
  IC50: > 79 µM (inactive)

## O=S(=O)(c1ccccc1)N1CCCC(c2nc(O)c3nnn(Cc4cccc(Cl)c4)c3n2)C1 (stereo not drawn)
[4]
  CC50: 13.1 µM (active)

## COc1ccccc1N1CCN(C(=O)c2sc3nc(C)nc(N4CCN(c5ccccn5)CC4)c3c2C)CC1
[4]
  CC50: 20 µM (active)

## Cc1cccc(C(=O)Nc2ccc(C(=O)/C=C/c3cccs3)cc2)c1
Protein skinhead-1
  IC50: > 100 µM (inactive)

## Cc1nc(NC(=O)/C=C/c2ccc(Cl)cc2Cl)sc1C(=O)N(C)C
[3]
  EC50: > 195 µM (not active)

## COc1ccc(N2C(=O)NC(=O)/C(=C/c3ccc4c(c3)Cc3ccccc3-4)C2=O)cc1
[1]
  EC50: > 300 µM (not active)
[2]
  EC50: > 300 µM (not active)

## Cc1ccccc1/N=C1\N=C(N)c2ccccc21
Paired box protein Pax-8
  AC50: 17.3 µM (active)

## CCOC(=O)Nc1nc(-c2ccc(F)cc2F)cs1
Protein skinhead-1
  IC50: 64.9 µM (inactive)

## CN(C)C=O.COc1cc(/C=C/c2nc3ccccc3c(=O)n2-c2ccc(O)cc2)ccc1O
H9c2
  IC50: > 79 µM (inactive)

## COC(=O)c1cc2ccc(OC)cc2c2cc(OC)c(OC)cc12
H9c2
  IC50: > 79 µM (inactive)

## CC(Cc1ccccc1)C(=O)Nc1ccccc1 (stereo not drawn)
[3]
  EC50: > 195 µM (not active)

## O=C(Nc1nc(SCc2ccc(F)cc2)ns1)c1ccco1
Protein skinhead-1
  IC50: 70.5 µM (inactive)

## CC(C)c1ccc(NC(=O)CNC(=O)Cn2cnc3ccccc3c2=O)cc1
[3]
  EC50: 60.8 µM (active)

## CCCN1C(=O)/C(=C/c2c[nH]nc2-c2ccccc2)SC1=S
[4]
  CC50: 20.7 µM (active)

## Cc1cc(/C=C2\C(=O)NC(=O)N(C)C2=O)c(C)n1-c1ccc2c(c1)OCO2
[1]
  EC50: > 300 µM (not active)
[2]
  EC50: > 300 µM (not active)

## CC1Cc2ccccc2N1C(=O)c1cc2c(=O)n3ccccc3nc2n1C (stereo not drawn)
Cytochrome P450 2C19
  AC50: 7.08 µM (inconclusive)
H9c2
  IC50: 59.3 µM (inactive)
Cytochrome P450 2C9
  AC50: 14.1 µM (inconclusive)

## CCCN=C(S)NC1CC2CCCC(C1)N2Cc1ccc(F)cc1 (stereo not drawn)
[3]
  EC50: > 195 µM (not active)

## Clc1c(-c2nnc3n2CCC3)sc2ccccc12
[4]
  CC50: 30.9 µM (active)

## Cc1nnc(N2C(=O)C(O)=C(C(=O)c3ccco3)C2c2cccc3ccccc23)s1 (stereo not drawn)
[1]
  EC50: > 300 µM (not active)
[2]
  EC50: > 300 µM (not active)

## O=C1CN(C(=O)c2ccc(Br)o2)C(c2ccccc2)c2cc(Br)ccc2N1 (stereo not drawn)
Protein skinhead-1
  IC50: 83.6 µM (inactive)

## Oc1cc(-c2ccccc2Cl)c2c(n1)CCC2
Protein skinhead-1
  IC50: > 100 µM (inactive)

## CCCCn1nc(NC(=O)c2cccs2)c2cc3cc(OC)ccc3nc21
H9c2
  IC50: > 79 µM (inactive)

## COc1ccc(-c2cc(C(=O)N(C)Cc3ccccc3F)c3ccccc3n2)cc1OC
H9c2
  IC50: 30.2 µM (inactive)

## O=C(CCc1nc(O)c2ccccc2n1)NCC(=O)Nc1ccc(F)c(F)c1
H9c2
  IC50: 25.2 µM (active)

## C=CCSc1nnc(N2C(=O)C(O)=C(C(=O)c3ccco3)C2c2ccc(F)cc2)s1 (stereo not drawn)
[1]
  EC50: 114 µM (active)
[2]
  EC50: 87.6 µM (active)
[5]
  EC50: > 260 µM (inactive)
